Assay results reported in PubChem BioAssay (NCI).
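1) Cells in 96-well plates. 2) Compound, 48 h, 5 concentrations. 3) Linear interpolation between surrounding doses. 4) Unreached endpoint = highest concentration. Abbreviation: GI50, concentration required for 50% inhibition of growth. TGI denotes the concentration required for complete inhibition of growth.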

Columns and labels:
Test in all cases: NCI-60 cell line screen, 48 h
SF-295 CNS = tested on: SF-295 CNS
KM12 colon = tested on: KM12 colon
SK-MEL-2 melanoma = tested on: SK-MEL-2 melanoma
BT-549 breast = tested on: BT-549 breast
MALME-3M melanoma = tested on: MALME-3M melanoma
K-562 leukemia = tested on: K-562 leukemia
HOP-92 NSCLC = tested on: HOP-92 NSCLC
MOLT-4 leukemia = tested on: MOLT-4 leukemia
CAKI-1 renal = tested on: CAKI-1 renal
UACC-62 melanoma = tested on: UACC-62 melanoma
NCI-H226 lung = tested on: NCI-H226 lung
NCI/ADR-RES ovarian = tested on: NCI/ADR-RES ovarian
M14 melanoma = tested on: M14 melanoma
SNB-75 CNS = tested on: SNB-75 CNS
HL-60(TB) leukemia = tested on: HL-60(TB) leukemia
T-47D breast = tested on: T-47D breast
HCT-116 colon = tested on: HCT-116 colon
OVCAR-8 ovarian = tested on: OVCAR-8 ovarian
HCT-15 colon = tested on: HCT-15 colon
OVCAR-3 ovarian = tested on: OVCAR-3 ovarian
HCC-2998 colon = tested on: HCC-2998 colon
SF-268 CNS = tested on: SF-268 CNS
MDA-MB-435 = tested on: MDA-MB-435
IGROV1 ovarian = tested on: IGROV1 ovarian
UACC-257 melanoma = tested on: UACC-257 melanoma
NCI-H522 lung = tested on: NCI-H522 lung
MCF7 breast = tested on: MCF7 breast
EKVX NSCLC = tested on: EKVX NSCLC
SF-539 CNS = tested on: SF-539 CNS
COLO 205 colon = tested on: COLO 205 colon
U251 CNS = tested on: U251 CNS
NCI-H460 lung = tested on: NCI-H460 lung
HS 578T breast = tested on: HS 578T breast
SK-OV-3 ovarian = tested on: SK-OV-3 ovarian
LOX IMVI melanoma = tested on: LOX IMVI melanoma
TK-10 renal = tested on: TK-10 renal
SR leukemia = tested on: SR leukemia
HOP-62 NSCLC = tested on: HOP-62 NSCLC
OVCAR-4 ovarian = tested on: OVCAR-4 ovarian
HT29 colon = tested on: HT29 colon
MDA-MB-231 breast = tested on: MDA-MB-231 breast
A549 NSCLC = tested on: A549 NSCLC
PC-3 prostate = tested on: PC-3 prostate
OVCAR-5 ovarian = tested on: OVCAR-5 ovarian
SW-620 colon = tested on: SW-620 colon
A498 renal = tested on: A498 renal
SK-MEL-5 melanoma = tested on: SK-MEL-5 melanoma
RXF 393 renal = tested on: RXF 393 renal
SK-MEL-28 melanoma = tested on: SK-MEL-28 melanoma
DU-145 prostate = tested on: DU-145 prostate
SN12C renal = tested on: SN12C renal
ACHN renal = tested on: ACHN renal
786-0 renal = tested on: 786-0 renal
RPMI-8226 leukemia = tested on: RPMI-8226 leukemia
CCRF-CEM leukemia = tested on: CCRF-CEM leukemia
SNB-19 CNS = tested on: SNB-19 CNS
NCI-H23 lung = tested on: NCI-H23 lung
UO-31 renal = tested on: UO-31 renal

`CCCC(=O)OCC1OC(n2cnc3c(=S)nc(N)[nH]c32)C(OC(=O)CCC)C1OC(=O)CCC` (centres undefined) showed a GI50 (SF-295 CNS) of 0.906 µM, a TGI (SF-295 CNS) of over 25 µM and a GI50 (KM12 colon) of 3.76 µM. For the same compound, the TGI (KM12 colon) was 22 µM, the GI50 (SK-MEL-2 melanoma) was 3.61 µM and the TGI (SK-MEL-2 melanoma) was over 44.5 µM. For the same compound, the GI50 (BT-549 breast) was 2.55 µM, the TGI (BT-549 breast) was 29.3 µM and the GI50 (MALME-3M melanoma) was 1.66 µM. The TGI (MALME-3M melanoma) was 36.5 µM, the GI50 (K-562 leukemia) was 3.92 µM and the TGI (K-562 leukemia) was over 100 µM. The GI50 (HOP-92 NSCLC) was 1.4 µM, the TGI (HOP-92 NSCLC) was over 48.3 µM and the GI50 (MOLT-4 leukemia) was 3.93 µM. The TGI (MOLT-4 leukemia) was over 85.3 µM, the GI50 (CAKI-1 renal) was 2.4 µM and the TGI (CAKI-1 renal) was over 47.5 µM. It also gave a GI50 (UACC-62 melanoma) of 2.81 µM, a TGI (UACC-62 melanoma) of 16 µM and a GI50 (NCI-H226 lung) of 5.47 µM. The TGI (NCI-H226 lung) was over 100 µM, the GI50 (NCI/ADR-RES ovarian) was 5.41 µM and the TGI (NCI/ADR-RES ovarian) was over 100 µM. The GI50 (M14 melanoma) was 1.75 µM, the TGI (M14 melanoma) was 9.32 µM and the GI50 (SNB-75 CNS) was 1.26 µM. For the same compound, the TGI (SNB-75 CNS) was 12.2 µM, the GI50 (HL-60(TB) leukemia) was 5.27 µM and the TGI (HL-60(TB) leukemia) was over 57.6 µM. The GI50 (T-47D breast) was 3.37 µM, the TGI (T-47D breast) was 23 µM and the GI50 (HCT-116 colon) was 2.72 µM. It also gave a TGI (HCT-116 colon) of 19.8 µM, a GI50 (OVCAR-8 ovarian) of 4.72 µM and a TGI (OVCAR-8 ovarian) of over 100 µM. It also gave a GI50 (HCT-15 colon) of 7.6 µM, a TGI (HCT-15 colon) of over 100 µM and a GI50 (OVCAR-3 ovarian) of 2.08 µM. It also gave a TGI (OVCAR-3 ovarian) of 6.19 µM, a GI50 (HCC-2998 colon) of 2.52 µM and a TGI (HCC-2998 colon) of 23.6 µM. For the same compound, the GI50 (SF-268 CNS) was 4.1 µM, the TGI (SF-268 CNS) was over 100 µM and the GI50 (MDA-MB-435) was 3.41 µM. The TGI (MDA-MB-435) was 46.9 µM, the GI50 (IGROV1 ovarian) was 5.93 µM and the TGI (IGROV1 ovarian) was 45.8 µM. For the same compound, the GI50 (UACC-257 melanoma) was 8.61 µM, the TGI (UACC-257 melanoma) was over 100 µM and the GI50 (NCI-H522 lung) was 2.58 µM. It also gave a TGI (NCI-H522 lung) of 14.2 µM, a GI50 (MCF7 breast) of 2.79 µM and a TGI (MCF7 breast) of 23.4 µM. The GI50 (EKVX NSCLC) was 5.36 µM, the TGI (EKVX NSCLC) was over 100 µM and the GI50 (SF-539 CNS) was 2.6 µM. It also gave a TGI (SF-539 CNS) of 18.4 µM, a GI50 (COLO 205 colon) of 4.73 µM and a TGI (COLO 205 colon) of 14.6 µM. It also gave a GI50 (U251 CNS) of 13.3 µM, a TGI (U251 CNS) of over 100 µM and a GI50 (NCI-H460 lung) of 3.85 µM. The TGI (NCI-H460 lung) was 19.3 µM, the GI50 (HS 578T breast) was 12.5 µM and the TGI (HS 578T breast) was over 95.7 µM. For the same compound, the GI50 (SK-OV-3 ovarian) was 1.56 µM, the TGI (SK-OV-3 ovarian) was 9.94 µM and the GI50 (LOX IMVI melanoma) was 0.574 µM. For the same compound, the TGI (LOX IMVI melanoma) was over 37 µM, the GI50 (TK-10 renal) was 1.91 µM and the TGI (TK-10 renal) was 16.4 µM. It also gave a GI50 (SR leukemia) of 1.03 µM, a TGI (SR leukemia) of 36.3 µM and a GI50 (HOP-62 NSCLC) of 2.05 µM. For the same compound, the TGI (HOP-62 NSCLC) was 15 µM, the GI50 (OVCAR-4 ovarian) was 2.73 µM and the TGI (OVCAR-4 ovarian) was 35.8 µM. For the same compound, the GI50 (HT29 colon) was 5.63 µM, the TGI (HT29 colon) was 39.9 µM and the GI50 (MDA-MB-231 breast) was 4.42 µM. It also gave a TGI (MDA-MB-231 breast) of over 100 µM, a GI50 (A549 NSCLC) of 25.2 µM and a TGI (A549 NSCLC) of over 100 µM. The GI50 (PC-3 prostate) was 3.42 µM, the TGI (PC-3 prostate) was over 100 µM and the GI50 (OVCAR-5 ovarian) was 3.06 µM. It also gave a TGI (OVCAR-5 ovarian) of over 85.5 µM, a GI50 (SW-620 colon) of 5.68 µM and a TGI (SW-620 colon) of over 77.7 µM. The GI50 (A498 renal) was 2.98 µM, the TGI (A498 renal) was over 35.9 µM and the GI50 (SK-MEL-5 melanoma) was 6.43 µM. The TGI (SK-MEL-5 melanoma) was 19.5 µM, the GI50 (RXF 393 renal) was 4.89 µM and the TGI (RXF 393 renal) was 24.2 µM. The GI50 (SK-MEL-28 melanoma) was 23.6 µM, the TGI (SK-MEL-28 melanoma) was 98 µM and the GI50 (DU-145 prostate) was 2.54 µM. It also gave a TGI (DU-145 prostate) of 51.3 µM, a GI50 (SN12C renal) of 3.81 µM and a TGI (SN12C renal) of over 100 µM. The GI50 (ACHN renal) was 4.96 µM, the TGI (ACHN renal) was over 68 µM and the GI50 (786-0 renal) was 2.92 µM. For the same compound, the TGI (786-0 renal) was 14.7 µM, the GI50 (RPMI-8226 leukemia) was 3.97 µM and the TGI (RPMI-8226 leukemia) was 57.6 µM. For the same compound, the GI50 (CCRF-CEM leukemia) was 2.26 µM, the TGI (CCRF-CEM leukemia) was over 27.6 µM and the GI50 (SNB-19 CNS) was 27 µM. For the same compound, the TGI (SNB-19 CNS) was over 100 µM, the GI50 (NCI-H23 lung) was 4.01 µM and the TGI (NCI-H23 lung) was 33 µM. It also gave a GI50 (UO-31 renal) of 3.99 µM and a TGI (UO-31 renal) of over 95.5 µM.

Work on `O=C1CCCC/C1=C(\Br)I` yielded a TGI (SF-295 CNS) of 37.7 µM, a TGI (KM12 colon) of 34 µM and a TGI (SK-MEL-2 melanoma) of 38.6 µM. The TGI (BT-549 breast) was 31.6 µM, the TGI (MALME-3M melanoma) was 12.1 µM and the TGI (K-562 leukemia) was 10.3 µM. For the same compound, the TGI (HOP-92 NSCLC) was 31.8 µM, the TGI (MOLT-4 leukemia) was 7.17 µM and the TGI (CAKI-1 renal) was 24.9 µM. The TGI (UACC-62 melanoma) was 38.3 µM, the TGI (NCI-H226 lung) was 43.7 µM and the TGI (NCI/ADR-RES ovarian) was 41.1 µM. It also gave a TGI (M14 melanoma) of 20.1 µM, a TGI (SNB-75 CNS) of 34.8 µM and a TGI (HL-60(TB) leukemia) of 5.71 µM. It also gave a TGI (T-47D breast) of 15.2 µM, a TGI (HCT-116 colon) of 25 µM and a TGI (OVCAR-8 ovarian) of 28.1 µM. For the same compound, the TGI (HCT-15 colon) was 7.97 µM, the TGI (OVCAR-3 ovarian) was 32.1 µM and the TGI (HCC-2998 colon) was 9.79 µM. It also gave a TGI (SF-268 CNS) of 14.8 µM, a TGI (MDA-MB-435) of 29.4 µM and a TGI (IGROV1 ovarian) of 40.8 µM. The TGI (UACC-257 melanoma) was 30.5 µM, the TGI (NCI-H522 lung) was 3.48 µM and the TGI (MCF7 breast) was 32.9 µM. The TGI (EKVX NSCLC) was 34.4 µM, the TGI (SF-539 CNS) was 41.2 µM and the TGI (COLO 205 colon) was 28.8 µM. For the same compound, the TGI (U251 CNS) was 34 µM, the TGI (NCI-H460 lung) was 33 µM and the TGI (HS 578T breast) was over 100 µM. It also gave a TGI (SK-OV-3 ovarian) of 49.2 µM, a TGI (LOX IMVI melanoma) of 32.4 µM and a TGI (TK-10 renal) of 18.4 µM. It also gave a TGI (SR leukemia) of 9.49 µM, a TGI (HOP-62 NSCLC) of 36.7 µM and a TGI (OVCAR-4 ovarian) of 29.3 µM. It also gave a TGI (HT29 colon) of 27.4 µM, a TGI (MDA-MB-231 breast) of 32.5 µM and a TGI (A549 NSCLC) of 58.6 µM. The TGI (PC-3 prostate) was 32.9 µM, the TGI (OVCAR-5 ovarian) was 33.2 µM and the TGI (SW-620 colon) was 10.4 µM. The TGI (A498 renal) was 35.7 µM, the TGI (SK-MEL-5 melanoma) was 42.1 µM and the TGI (RXF 393 renal) was 29.5 µM. The TGI (SK-MEL-28 melanoma) was 29.9 µM, the TGI (DU-145 prostate) was 26 µM and the TGI (SN12C renal) was 30.8 µM. It also gave a TGI (ACHN renal) of 29.6 µM, a TGI (786-0 renal) of 37.5 µM and a TGI (RPMI-8226 leukemia) of 16.5 µM. For the same compound, the TGI (CCRF-CEM leukemia) was 5.68 µM, the TGI (SNB-19 CNS) was 47.5 µM and the TGI (NCI-H23 lung) was 16.8 µM. For the same compound, the TGI (UO-31 renal) was 31.5 µM.
